Assay results published in patent publication US8106055B2, “Substituted amide compounds” (Gruenenthal GmbH, priority 2007, dated 2012).

Assays:
[1] = biological target: T1, human μ opiate receptor (Homo sapiens, UniProt P35372); assay: Affinity for the human μ opiate receptor ([3H]-naloxone displacement, CHO-K1 receptor membrane preparation, SPA); assay type: binding; conditions: test concentration of 1 μM
T1 construct: purchased PerkinElmer Life Sciences, Zaventem, Belgium RB-HOM; host or cells: CHO-K1 cells (membrane preparation)
T1 sequence (P35372 whole entry): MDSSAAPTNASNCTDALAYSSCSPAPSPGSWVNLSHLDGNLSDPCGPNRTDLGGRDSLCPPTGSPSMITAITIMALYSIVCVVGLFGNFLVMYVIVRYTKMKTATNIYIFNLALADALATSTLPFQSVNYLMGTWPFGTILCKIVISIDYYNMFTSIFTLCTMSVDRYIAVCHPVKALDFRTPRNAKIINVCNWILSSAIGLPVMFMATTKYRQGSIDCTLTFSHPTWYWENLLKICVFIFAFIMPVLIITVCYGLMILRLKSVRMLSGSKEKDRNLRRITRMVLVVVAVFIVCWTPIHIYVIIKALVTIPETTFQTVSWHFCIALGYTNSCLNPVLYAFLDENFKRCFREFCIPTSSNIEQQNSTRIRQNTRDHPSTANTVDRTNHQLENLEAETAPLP
Summary of the method: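 Readout is percent displacement of [3H]-naloxone (1 nmol/l) from human μ receptor in CHO-K1 membranes, measured at 1 μmol/l compound. Incubation runs 90 minutes at room temperature with WGA-SPA beads in Tris-HCl/BSA buffer; non-specific binding is defined with 100 μmol/l naloxone.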

[2] = biological target: T2, serotonin (5-HT) reuptake (Rattus norvegicus, UniProt P31652); assay: Inhibition of serotonin (5HT) reuptake in synaptosomes from rat brain; assay type: biochemical; conditions: test concentration of 10 μM
T2 construct: synaptosomes are freshly isolated from areas of the rat brain; from tissue; host or cells: rat brain synaptosomes (P2 fraction)
T2 sequence (P31652 whole entry): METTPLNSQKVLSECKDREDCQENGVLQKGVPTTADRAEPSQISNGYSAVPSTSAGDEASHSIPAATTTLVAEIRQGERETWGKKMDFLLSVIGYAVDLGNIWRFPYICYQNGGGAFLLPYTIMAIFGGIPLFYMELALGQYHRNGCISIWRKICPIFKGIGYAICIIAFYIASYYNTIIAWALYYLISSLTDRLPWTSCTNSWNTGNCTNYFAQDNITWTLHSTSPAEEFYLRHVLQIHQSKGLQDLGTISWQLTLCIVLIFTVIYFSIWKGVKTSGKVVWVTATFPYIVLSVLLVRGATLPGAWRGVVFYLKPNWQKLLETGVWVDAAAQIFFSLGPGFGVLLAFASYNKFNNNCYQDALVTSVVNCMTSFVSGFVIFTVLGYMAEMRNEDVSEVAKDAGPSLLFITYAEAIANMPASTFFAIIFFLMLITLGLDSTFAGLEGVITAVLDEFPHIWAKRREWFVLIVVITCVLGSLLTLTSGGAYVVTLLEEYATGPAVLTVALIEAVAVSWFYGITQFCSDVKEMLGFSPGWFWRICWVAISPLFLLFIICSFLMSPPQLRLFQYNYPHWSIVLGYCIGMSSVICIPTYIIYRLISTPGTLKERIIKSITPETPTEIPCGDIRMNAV
Summary of the method: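 Freshly isolated rat brain synaptosomes (P2 fraction) used for 5-HT reuptake. Test compound at 10 μM, activity given as % inhibition.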

Row | Structure (SMILES) | μ (binding on the μ opioid receptor, % inhibition) [1] [%] | 5-HT (inhibition of reuptake of serotonin, % inhibition) [2] [%]
1 | CN(C)C(c1ccc(F)cc1)C1CCC(NC(=O)COCCN(C)S(=O)(=O)c2c(Cl)cccc2Cl)CC1 (centres unmarked) [Example 363] | 59 | 73
2 | CN(C)C(c1cccc(F)c1)C1CCC(NC(=O)COCCN2CCN(S(=O)(=O)c3ccccc3)CC2)CC1 (centres unmarked) [Example 364] | 58 | 95
3 | COc1cc(C)c(S(=O)(=O)N2CCC(OCC(=O)NC3CCC(C(c4ccc(F)cc4)N(C)C)CC3)C2)c(C)c1C (centres unmarked) [Example 365] | 49 | 90
4 | COc1cc(C)c(S(=O)(=O)N2CCN(CCOCC(=O)NCC3CCC(C(c4ccc(F)cc4)N(C)C)CC3)CC2)c(C)c1C (centres unmarked) [Example 366] | 55 | 96
5 | COc1ccc(S(=O)(=O)N2CCCCC2COCC(=O)NCC2CCC(C(c3ccc(Cl)cc3)N(C)C)CC2)cc1OC (centres unmarked) [Example 367] | 60 | 89
6 | CN(C)C(c1ccc(F)cc1)C1CCC(CCNC(=O)COCCN(C)S(=O)(=O)c2cccc(C(F)(F)F)c2)CC1 (centres unmarked) [Example 368] | 61 | 95
7 | CN(C)C(c1ccc(F)cc1)C1CCC(NC(=O)COC2CCN(S(=O)(=O)c3ccc(Cl)cc3)C2)CC1 (centres unmarked) [Example 370] | 59 | 83
8 | Cc1ccc(S(=O)(=O)N2CCC(OCC(=O)NC3CCC(C(c4ccc(F)cc4)N(C)C)CC3)C2)cc1 (centres unmarked) [Example 371] | 57 | 85
9 | COc1cc(C)c(S(=O)(=O)N(CCOCC(=O)NC2CCC(C(c3cccc(F)c3)N(C)C)CC2)Cc2ccccc2)c(C)c1 (centres unmarked) [Example 372] | 59 | 89
10 | COc1ccc(S(=O)(=O)N2Cc3ccccc3CC2COCC(=O)NCC2CCC(C(CCc3ccccc3)N(C)C)CC2)cc1 (centres unmarked) [Example 373] | 62 | 85
11 | COc1ccc(S(=O)(=O)N2Cc3ccccc3CC2COCC(=O)NCCC2CCC(C(c3ccc(Cl)cc3)N(C)C)CC2)cc1 (centres unmarked) [Example 374] | 59 | 90
12 | CN(C)C(c1ccc(Cl)cc1)C1CCC(CCNC(=O)COC2CCN(S(=O)(=O)c3ccccc3)C2)CC1 (centres unmarked) [Example 375] | 53 | 88
13 | CN(C)C(c1cccc(F)c1)C1CCC(CCNC(=O)COC2CCN(S(=O)(=O)c3ccccc3)C2)CC1 (centres unmarked) [Example 376] | 62 | 88
14 | CN(C)C(c1ccc(F)cc1)C1CCC(CCNC(=O)COCCN(C)S(=O)(=O)c2ccc(Cl)cc2)CC1 (centres unmarked) [Example 377] | 59 | 88
15 | COc1cc(C)c(S(=O)(=O)N(C)CCOCC(=O)NCCC2CCC(C(c3ccc(Cl)cc3)N(C)C)CC2)c(C)c1 (centres unmarked) [Example 378] | 58 | 83
16 | COc1ccc(S(=O)(=O)N(C)CCOCC(=O)NCC2CCC(C(c3ccc(Cl)cc3)N(C)C)CC2)cc1OC (centres unmarked) [Example 379] | 45 | 81
17 | CN(C)C(c1ccc(F)cc1)C1CCC(NC(=O)COC2CCN(S(=O)(=O)c3ccc(F)cc3)C2)CC1 (centres unmarked) [Example 381] | 54 | 79
18 | CN(C)C(c1ccc(F)cc1)C1CCC(NC(=O)COCCN(C)S(=O)(=O)c2c(Cl)cc(Cl)cc2Cl)CC1 (centres unmarked) [Example 382] | 60 | 96
19 | COc1ccc(S(=O)(=O)N2CCCCC2CCOCC(=O)NCCC2CCC(C(c3ccc(Cl)cc3)N(C)C)CC2)cc1 (centres unmarked) [Example 383] | 59 | 94
20 | CN(C)C(c1ccc(Cl)cc1)C1CCC(CNC(=O)COC2CCN(S(=O)(=O)c3ccc(Cl)cc3)C2)CC1 (centres unmarked) [Example 384] | 55 | 87
21 | CN(C)C(c1ccc(F)cc1)C1CCC(CCNC(=O)COCCN(C)S(=O)(=O)c2c(Cl)cc(Cl)cc2Cl)CC1 (centres unmarked) [Example 386] | 63 | 98
22 | COc1cc(C)c(S(=O)(=O)N2CCN(CCOCC(=O)NCCC3CCC(C(c4ccc(F)cc4)N(C)C)CC3)CC2)c(C)c1C (centres unmarked) [Example 387] | 53 | 95

Row | Structure (SMILES) | μ (binding on the μ opioid receptor, % inhibition) [1] [%] | 5-HT (inhibition of reuptake of serotonin, % inhibition) [2] [%]
23 | COc1cc(C)c(S(=O)(=O)N(CCOCC(=O)NCC2CCC(C(c3cccc(F)c3)N(C)C)CC2)Cc2ccccc2)c(C)c1 (centres unmarked) [Example 388] | 65 | 91
24 | COc1ccc(S(=O)(=O)N2Cc3ccccc3CC2COCC(=O)NCCC2CCC(C(c3ccc(F)cc3)N(C)C)CC2)cc1 (centres unmarked) [Example 389] | 58 | 93
25 | CN(C)C(c1ccc(F)cc1)C1CCC(CNC(=O)COCCN(C)S(=O)(=O)c2cccc(C(F)(F)F)c2)CC1 (centres unmarked) [Example 390] | 55 | 90
26 | CN(C)C(c1ccc(F)cc1)C1CCC(CNC(=O)COC2CCN(S(=O)(=O)c3ccc(Cl)cc3Cl)C2)CC1 (centres unmarked) [Example 391] | 56 | 85
27 | COc1cc(C)c(S(=O)(=O)N(C)CCOCC(=O)NCCC2CCC(C(c3ccc(F)cc3)N(C)C)CC2)c(C)c1 (centres unmarked) [Example 392] | 57 | 89
28 | Cc1cc(C)c(S(=O)(=O)N2CCC(OCC(=O)NCC3CCC(C(c4ccc(Cl)cc4)N(C)C)CC3)C2)c(C)c1 (centres unmarked) [Example 393] | 55 | 70
29 | CN(C)C(c1ccc(Cl)cc1)C1CCC(CNC(=O)COC2CCN(S(=O)(=O)c3ccc(F)cc3)C2)CC1 (centres unmarked) [Example 394] | 56 | 93
30 | CN(C)C(c1ccc(Cl)cc1)C1CCC(CCNC(=O)COC2CCCN(S(=O)(=O)c3ccccc3)C2)CC1 (centres unmarked) [Example 395] | 54 | 96
31 | CCN(CCOCC(=O)NC1CCC(C(c2ccc(F)cc2)N(C)C)CC1)S(=O)(=O)c1c(C)cc(OC)c(C)c1C (centres unmarked) [Example 396] | 60 | 90
32 | COc1cc(C)c(S(=O)(=O)N2CCC(CCOCC(=O)NCCC3CCC(C(c4cccc(F)c4)N(C)C)CC3)CC2)c(C)c1C (centres unmarked) [Example 397] | 67 | 93
33 | COc1ccc(S(=O)(=O)N2CCCCC2CCOCC(=O)NCCC2CCC(C(c3ccc(F)cc3)N(C)C)CC2)cc1 (centres unmarked) [Example 398] | 59 | 97
34 | CN(C)C(c1ccc(F)cc1)C1CCC(CNC(=O)COCCN(C)S(=O)(=O)c2ccc(Cl)cc2)CC1 (centres unmarked) [Example 399] | 52 | 89
35 | CN(C)C(c1ccc(F)cc1)C1CCC(CNC(=O)COCCN(C)S(=O)(=O)c2ccc(F)cc2)CC1 (centres unmarked) [Example 400] | 55 | 103
36 | COc1ccc(S(=O)(=O)N(C)CCOCC(=O)NC2CCC(C(c3cccc(F)c3)N(C)C)CC2)cc1OC (centres unmarked) [Example 401] | 49 | 99
37 | CN(C)C(c1ccc(F)cc1)C1CCC(CNC(=O)COC2CCN(S(=O)(=O)c3cccc(C(F)(F)F)c3)C2)CC1 (centres unmarked) [Example 402] | 53 | 77
38 | COc1cc(C)c(S(=O)(=O)N2CCC(OCC(=O)NCC3CCC(C(c4ccc(Cl)cc4)N(C)C)CC3)C2)c(C)c1 (centres unmarked) [Example 403] | 52 | 93
39 | CN(C)C(c1ccc(F)cc1)C1CCC(CNC(=O)COCCN(C)S(=O)(=O)c2c(Cl)cc(Cl)cc2Cl)CC1 (centres unmarked) [Example 404] | 53 | 96
40 | COc1ccc(S(=O)(=O)N2CCCCC2COCC(=O)NCC2CCC(C(c3ccc(F)cc3)N(C)C)CC2)c(OC)c1 (centres unmarked) [Example 405] | 52 | 89
41 | CN(C)C(c1ccc(F)cc1)C1CCC(NC(=O)COCCN(C)S(=O)(=O)c2ccc(Cl)cc2)CC1 (centres unmarked) [Example 406] | 51 | 93
42 | CN(C)C(c1cccc(F)c1)C1CCC(CCNC(=O)COC2CCN(S(=O)(=O)c3ccc(F)cc3)C2)CC1 (centres unmarked) [Example 407] | 54 | 95
43 | CN(C)C(c1ccc(F)cc1)C1CCC(NC(=O)COC2CCN(S(=O)(=O)c3ccccc3)CC2)CC1 (centres unmarked) [Example 408] | 48 | 93
